Measurements published in patent publication US20230058189A1, “QUINOLIN-4-ONE AND 4(1H)-CINNOLINONE COMPOUNDS AND METHODS OF USING SAME” (Frequency Therapeutics, Inc., priority 2019, published 2023).

How the values were obtained:
[1] = tested on: Lgr5+ cells (cochlear stem cells); assay: Lgr5+ assay: expansion of Lgr5-positive cochlear cells in 3D culture; type: cell-based, mouse
Description: “Stem Cell Proliferation Assay” as used herein is an assay to determine the capacity for agent(s) to induce the creation of stem cells from a starting cell population. In an exemplary Stem Cell Proliferation Assay, the number of cells for an initial cell population is harvested from a Lgr5-GFP mouse such as a B6.129P2-Lgr5tm1(cre/ERT2)Cle/J mouse (also known as Lgr5-EGFP-IRES-creERT2 or Lgr5-GFP mouse, Jackson Lab Stock No: 008875) between the age of 3 to 7 days, by isolating the organ of Corti sensory epithelium and dissociating the epithelium into single cells. Approximately 5000 cells are entrapped in 40 μl of culture substrate (for example, Matrigel (Corning, Growth Factor Reduced)) and placed at the center of wells in a 24-well plate with 500 μl of an appropriate culture media, growth factors and agent being tested. Appropriate culture media and growth factors include Advanced DMEM/F12 with media supplements (1×N2, 1×B27, 2 mM Glutamax, 10 mM HEPES, 1 mM N-acetylcysteine, and 100 U/ml penicillin/100 μg/ml streptomycin) and growth factors (50 ng/ml EGF, 50 ng/ml bFGF, and 50 ng/ml IGF-1) as well as the agent(s) being assessed are added into each well. Cells are cultured for 10 days in a standard cell culture incubator at 37° C. and 5% CO2, with media change every 2 days. The number of Lgr5^+ cells is quantified by counting the number of cells identified as Lgr5+ in an in vitro Lgr5 activity assay (i.e., an assay mearing in vitro Lgr5 activity). The fraction of cells that are Lgr5^+ is quantified by dividing the number of cells identified as Lgr5^+ in a cell population by the total number of cells present in the cell population. The average Lgr5^+ activity of a population is quantified by measuring the average mRNA expression level of Lgr5 of the population normalized using suitable and unregulated references or housekeeping genes (e.g., Hprt). The number of hair cells in a population may be measured by staining with hair cell marker (e.g., MyosinVIIa), or using an endogenous reporter of hair cell genes (e.g., Pou4f3-GFP, Atoh1-nGFP) and analyzing using flow cytometry. The fraction of cells that are hair cells is quantified by dividing the number of cells identified as hair cells in a cell population by the total number of cells present in the cell population. Lgr5 activity can be measured by qPCR.
The compounds of the present disclosure were used in Lgr5-EGFP-IRES-Cre-ER mice (Barker et al., 2007) to analyze the effects of small molecules on cochlear stem cell expansion.
Isolation of stem cells from the inner ear: All animal studies were conducted under an approved institutional protocol according to National Institutes of Health guidelines. For experiments with neonatal mice (postnatal days 1-3), the cochleae were dissected in Hank's Balanced Salt Solution (HBSS) and the organs of Corti were separated from the stria vascularis and the modiolus. The organs of Corti were then treated with Cell Recovery Solution (Corning) for 1 hour to separate cochlear epithelium from the underlying mesenchyme. Epithelia were then collected and treated with TrypLE (Life Technologies) for 15-20 minutes at 37° C. Single cells obtained by mechanical trituration were filtered (40 μm) and suspended in Matrigel® (Corning) for 3D culture.
Cells were cultured in a 1:1 mixture of DMEM and F12, supplemented with Glutamax (GIBCO), N2, B27 (Invitrogen), EGF (50 ng/ml; Chemicon), bFGF (50 ng/ml; Chemicon), IGF1 (50 ng/ml; Chemicon) and the composition provided herein. Medium was changed every other day.
Lgr5-positive cells were quantified after 10 days (D10) in culture in multiple conditions. Cell colonies were dissociated into single cells using TrypLE (Gibco). The cells were then stained with propidium iodide (P1) and were analyzed using a flow cytometer for Lgr5-GFP expression. The number of GFP-positive cells and the percentage of GFP-positive cells were quantified. […]

GSK3α = GSK3α (Homo sapiens, UniProt P49840); assay: GSK3α in vitro enzymatic assay (Kinase-Glo Max luminescence); type: biochemical; settings: recombinant human GSK3, 10 μM ATP; approximate values; read-out: Potency GSK3alpha
Sequence of GSK3α (P49840 whole entry): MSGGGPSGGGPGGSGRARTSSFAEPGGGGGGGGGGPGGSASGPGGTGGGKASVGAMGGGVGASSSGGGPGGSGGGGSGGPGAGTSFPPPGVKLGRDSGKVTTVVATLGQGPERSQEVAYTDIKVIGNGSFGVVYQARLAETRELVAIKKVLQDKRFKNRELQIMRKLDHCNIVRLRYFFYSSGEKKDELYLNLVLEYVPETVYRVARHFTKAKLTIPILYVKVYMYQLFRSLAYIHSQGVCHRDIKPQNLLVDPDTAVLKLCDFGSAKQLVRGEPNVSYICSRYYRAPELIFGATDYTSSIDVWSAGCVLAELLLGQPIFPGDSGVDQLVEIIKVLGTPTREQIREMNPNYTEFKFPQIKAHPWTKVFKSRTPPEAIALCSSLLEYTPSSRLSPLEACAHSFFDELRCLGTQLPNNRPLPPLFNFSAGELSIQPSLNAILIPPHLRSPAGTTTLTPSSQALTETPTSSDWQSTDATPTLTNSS
Description: (§1) Enzymatic activities of compounds of the present disclosure can be tested using recombinant human GSK3 in an in vitro enzymatic assay to determine the ability of the compounds of the present disclosure to inhibit GSK3α and GSK3β.
(§2) The assay was performed using Kinase-Glo® Max luminescence kinase assay kit (Promega). The assay measures kinase activity by quantitating the amount of ATP remaining in solution following a kinase reaction. The luminescent signal from the assay is correlated with the amount of ATP present and is inversely correlated with the amount of kinase activity.
(§3) To perform the assay, compounds were diluted in 10% DMSO and 5 μl of the dilution was added to a 50 μl reaction so that the final concentration of DMSO was 1% in all of reactions. The enzymatic reactions were conducted at 30° C. for 40 minutes. The 50 μl reaction mixture contained 40 mM Tris, pH 7.4, 10 mM MgCl2, 0.1 mg/ml BSA, 2 mM DTT, 0.1 mg/ml GSK tide substrate, 10 uM ATP and GSK3. After the enzymatic reaction, 50 μl of Kinase-Glo Max Luminescence kinase assay solution (Promega) was added to each reaction and plates were incubated for 15 minutes at room temperature. Luminescence signal was measured using a BioTek Synergy 2 microplate reader.
(§4) Kinase activity assays were performed in duplicate at each concentration. The luminescence data were analyzed using the computer software, GraphPad Prism. The difference between luminescence intensities in the absence of Kinase (Lut) and in the presence of Kinase (Luc) was defined as 100% activity (Lut-Luc). Using luminescence signal (Lu) in the presence of the compound, percent activity was calculated as: % activity={(Lut-Lu)/(Lut-Luc)}×100%, where Lu=the luminescence intensity in the presence of the compound (all percent activities below zero were shown zero in the table).
(§5) The values of percent activity versus a series of compound concentrations were then plotted using non-linear regression analysis of Sigmoidal dose-response curve generated with the equation Y=B+(T−B)/1+10((LogEC50−X)×Hill Slope), where Y=percent activity, B=minimum percent activity, T=maximum percent activity, X=logarithm of compound and Hill Slope=slope factor or Hill coefficient. The ICs, value was determined by the concentration causing a half-maximal percent activity.

GSK3β = GSK3β (Homo sapiens, UniProt P49841); assay: GSK3β in vitro enzymatic assay (Kinase-Glo Max luminescence); type: biochemical; settings: recombinant human GSK3, 10 μM ATP; approximate values; read-out: Potency GSK3beta
Sequence of GSK3β (P49841 whole entry): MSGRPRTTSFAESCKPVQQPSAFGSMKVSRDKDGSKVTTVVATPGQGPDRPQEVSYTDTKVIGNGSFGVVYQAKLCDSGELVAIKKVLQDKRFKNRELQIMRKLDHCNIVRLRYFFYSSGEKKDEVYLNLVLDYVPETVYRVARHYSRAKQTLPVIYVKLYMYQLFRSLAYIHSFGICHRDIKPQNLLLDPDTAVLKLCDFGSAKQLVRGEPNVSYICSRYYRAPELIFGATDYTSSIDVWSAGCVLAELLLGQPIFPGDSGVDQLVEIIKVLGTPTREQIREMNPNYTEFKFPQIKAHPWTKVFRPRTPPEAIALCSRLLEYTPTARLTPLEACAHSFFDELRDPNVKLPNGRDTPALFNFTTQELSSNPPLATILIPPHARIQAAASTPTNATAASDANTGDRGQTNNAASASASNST
Description: as §1, §2, §3, §4, §5

LSD2 = molecular target: T1, LSD2 (Homo sapiens, UniProt Q8NB78); assay: LSD2 A-screen (AlphaScreen) demethylase enzymatic assay; type: biochemical; settings: 50 μM compound, approximate values; for inhibition at 50 µM: read-out: Potency LSD-2 % Inhibition at 50 μM
T1 sequence (Q8NB78 1-822): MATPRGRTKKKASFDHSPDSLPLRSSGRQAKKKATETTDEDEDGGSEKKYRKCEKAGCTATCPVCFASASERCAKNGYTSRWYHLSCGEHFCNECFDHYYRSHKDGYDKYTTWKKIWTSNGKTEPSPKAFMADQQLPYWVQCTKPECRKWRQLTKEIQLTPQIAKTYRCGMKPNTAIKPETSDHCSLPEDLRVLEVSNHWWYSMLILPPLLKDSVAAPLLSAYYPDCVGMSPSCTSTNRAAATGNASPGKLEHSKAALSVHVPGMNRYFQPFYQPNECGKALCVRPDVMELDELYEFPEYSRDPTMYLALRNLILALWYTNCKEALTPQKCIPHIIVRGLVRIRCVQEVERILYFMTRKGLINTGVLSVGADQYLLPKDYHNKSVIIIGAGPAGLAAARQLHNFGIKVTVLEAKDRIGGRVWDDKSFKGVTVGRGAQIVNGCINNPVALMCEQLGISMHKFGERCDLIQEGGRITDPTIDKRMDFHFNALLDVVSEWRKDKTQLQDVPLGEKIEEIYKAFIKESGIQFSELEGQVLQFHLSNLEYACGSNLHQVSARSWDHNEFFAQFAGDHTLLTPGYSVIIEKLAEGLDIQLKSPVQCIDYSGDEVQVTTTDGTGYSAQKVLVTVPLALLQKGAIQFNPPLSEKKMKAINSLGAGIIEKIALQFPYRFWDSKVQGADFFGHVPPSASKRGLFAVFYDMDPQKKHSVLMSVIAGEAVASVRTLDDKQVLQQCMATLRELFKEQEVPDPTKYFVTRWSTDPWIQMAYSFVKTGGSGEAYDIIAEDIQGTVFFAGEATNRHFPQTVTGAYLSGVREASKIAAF
Description: (§6) Enzymatic activities of compounds of the present disclosure can be tested with recombinant human LSD using an in vitro enzymatic assay to determine the ability of the compounds of the present disclosure to inhibit LSD-1 and LSD2. Examples of the assay are provided below.
(§7) All of the enzymatic reactions were conducted in duplicate at room temperature for 60 minutes in a 10 μL mixture containing assay buffer, histone H3 peptide substrate, demthylase enzyme, and the test compound. These 10 μL reactions were carried out in wells of a 384-well Optiplate (PerkinElmer). The dilution of the compounds was first performed in 100% DMSO with the highest concentration at 5 mM Each intermediate compound dilution (in 100% DMSO) was then directly diluted 30× fold into assay buffer for 3.3× concentration (DMSO). […] From this intermediate step, 3 μL of compound was added to 4 μL of demethylase enzyme dilution was incubated for 30 minutes at room temperature. After this incubation, 3 μL of peptide substrate was added. The final DMSO concentration was 1%. After enzymatic reactions, 5 μL of anti-Mouse or anti-Rabbit Acceptor beads (PerkinElmer, diluted 1:500 with 1× detection buffer) and […] (BPS, diluted 1:800 with 1× detection buffer) were added to the reaction mix. After brief shaking, the plate was incubated for 30 minutes. Finally, 10 μL of AlphaScreen™ Streptavidin-conjugated donor beads (Perkin, diluted 1:125 with 1× detection buffer) were added. After 30 minutes, the samples were measured in an AlphaScreen microplate reader (EnSpire Alpha 2390 Multilabel Reader, Perkin Elmer).
(§8) Enzyme activity assays were performed in duplicates at each concentration. The A-screen intensity data were analyzed and compared. In the absence of the compound, the intensity in each data set was defined as 100% (Ce) activity. In the absence of enzyme, the intensity in each data set was defined as 0% (C0) activity. The percent activity in the presence of each compound was calculated according to the following equation: % activity=(C−C0)/(Ce−C0), where C=the intensity in the presence of the compound.
as §5, with “value” for “values”, “was” for “were”, “IC50” for “ICs,”

LSD-1 = LSD-1 (Homo sapiens, UniProt O60341); assay: LSD-1 A-screen (AlphaScreen) demethylase enzymatic assay; type: biochemical; settings: approximate values; for inhibition at 50 µM: read-out: Potency LSD-1 % Inhibition at 50 μM
Description: as §6, §7, §8
as §5, with “value” for “values”, “was” for “were”, “IC50” for “ICs,”

[2] = in a background of growth factors, compared to CHIR-99021 and its combinations (figures)

CCn1cc(C(=O)O)c(=O)c2c(N)c(F)c(N[C@@H]3C[C@H]3c3ccccc3)cc21 (relative stereo) [Compound I-20]
Potency (Lgr5+ activity) ([1]; effective concentration for Lgr5+ expansion, 10 days culture with EGF, bFGF, IGF1, approximate values): 1.1 µM | Lgr5 GFP+ progenitor cell proliferation (Lgr5 positive cell count) [1, 2]: generate Lgr5 GFP+ progenitor cell proliferation | enrichment of Lgr5 GFP+ cochlear progenitor cells (percent of Lgr5 positive cells) [1, 2]: generates enrichment of Lgr5 GFP+ cochlear progenitor cells

Nc1c(F)c(NCCN[C@@H]2C[C@H]2c2ccccc2)cc2c1c(=O)c(C(=O)O)cn2CCO (relative stereo) [Compound I-90]
IC50 (GSK3α): 0.99 µM | IC50 (GSK3β): 1.6 µM | inhibition at 50 µM (LSD2): 8% | IC50 (LSD-1; read-out: Potency LSD-1 IC50): 8.5 µM

CCn1cc(C(=O)O)c(=O)c2c(N)c(F)c(N[C@@H]3C[C@H]3c3ccccc3)cc21 (single isomer, unassigned) [Compound I-63]
IC50 (GSK3α): > 10 µM | IC50 (GSK3β): > 10 µM | Potency LSD-2 % Inhibition at 50 μM (LSD2; 50 µM): 6% | Potency LSD-1 % Inhibition at 50 μM (LSD-1; 50 μM compound, 50 µM): 26% @ 50 μM

CCn1cc(C(=O)O)c(=O)c2c(N)c(F)c(OCCc3ccccc3)cc21 [Compound I-52]
IC50 (GSK3α): > 10 µM | IC50 (GSK3β): > 10 µM | inhibition at 50 µM (LSD2): 3% | inhibition at 50 µM (LSD-1; 50 μM compound): 0%

CCn1cc(C(=O)O)c(=O)c2c(F)cc(NCc3ccccc3)cc21 [Compound I-55]
IC50 (GSK3α): > 10 µM | IC50 (GSK3β): > 10 µM

CCn1cc(C(=O)O)c(=O)c2c(N)cc(NCCc3ccccc3)cc21 [Compound I-56]
IC50 (GSK3α): > 10 µM | IC50 (GSK3β): > 10 µM | inhibition at 50 µM (LSD2): 28% | inhibition at 50 µM (LSD-1; 50 μM compound): 56%

CCn1cc(C(=O)O)c(=O)c2c(N)cc(NC3CCCCC3)cc21 [Compound I-58]
IC50 (GSK3α): > 10 µM | IC50 (GSK3β): > 10 µM | inhibition at 50 µM (LSD2): 7% | inhibition at 50 µM (LSD-1; 50 μM compound): 77%

CCn1cc(C(=O)O)c(=O)c2c(N)cc(NC3CCCCC3)c(F)c21 [Compound I-64]
IC50 (GSK3α): > 10 µM | IC50 (GSK3β): > 10 µM | inhibition at 50 µM (LSD2): 2% | inhibition at 50 µM (LSD-1; 50 μM compound): 72%
